The source of these data is patent publication US7504420B2, “Compounds which inhibit beta-secretase activity and methods of use” (CoMentis, Inc., priority 2005, dated 2009).

Bounds are passed on as bounds.

The target in one assay is memapsin 2 (Homo sapiens, UniProt P56817). The assay can be described thus: Inhibition of memapsin 2 catalytic activity (Ki). Type of assay: biochemical. The conditions noted are these: memapsin 2, pH 4, 37° C.; read-out: M2K. A digest of the protocol: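 Run at 37 °C and pH 4: compound and enzyme pre-incubated 20 min before FS-2 fluorogenic substrate started hydrolysis,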

The next assay addresses T1, memapsin 1 (Homo sapiens, UniProt Q9Y5Z0).
T1 sequence (Q9Y5Z0 63-518): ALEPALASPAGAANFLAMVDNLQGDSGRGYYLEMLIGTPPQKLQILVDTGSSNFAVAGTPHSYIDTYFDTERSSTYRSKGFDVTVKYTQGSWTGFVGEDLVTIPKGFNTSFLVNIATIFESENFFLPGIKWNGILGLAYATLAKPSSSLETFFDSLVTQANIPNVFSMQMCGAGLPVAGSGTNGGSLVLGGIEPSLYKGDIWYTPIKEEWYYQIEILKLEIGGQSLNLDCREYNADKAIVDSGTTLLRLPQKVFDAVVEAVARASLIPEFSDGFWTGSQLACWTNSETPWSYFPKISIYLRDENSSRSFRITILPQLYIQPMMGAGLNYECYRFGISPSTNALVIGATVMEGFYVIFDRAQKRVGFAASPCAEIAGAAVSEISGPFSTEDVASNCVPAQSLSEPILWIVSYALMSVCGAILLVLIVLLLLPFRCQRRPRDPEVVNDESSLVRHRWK
The assay is described as follows: Inhibition of memapsin 1 catalytic activity (Ki). Type of assay: biochemical. The conditions noted are these: memapsin 1, pH 4.0, 37° C.; read-out: M1K.

The subject of assay [1] is Aβ production in Chinese hamster ovary cells that over-express human APP695 with the London and Swedish mutations. The assay can be described thus: Cellular Aβ IC50 determination (Aβ40 sandwich ELISA). The settings on record: Cricetulus griseus, CHO, 24 h, read-out: Cell, Aβ40, CHO cells over-expressing human APP695 (London and Swedish mutations), 24 h. (In general: An ELISA detects its analyte on a solid surface through an enzyme-linked reagent.)

The target in the next assay is cathepsin D (Homo sapiens, UniProt P07339). The assay is described as follows: Inhibition of cathepsin D catalytic activity (Ki). In kind it is biochemical. The settings on record: pH 4.0, 37° C., read-out: CDK.
cathepsin D, sequence (P07339 65-412, species assumed): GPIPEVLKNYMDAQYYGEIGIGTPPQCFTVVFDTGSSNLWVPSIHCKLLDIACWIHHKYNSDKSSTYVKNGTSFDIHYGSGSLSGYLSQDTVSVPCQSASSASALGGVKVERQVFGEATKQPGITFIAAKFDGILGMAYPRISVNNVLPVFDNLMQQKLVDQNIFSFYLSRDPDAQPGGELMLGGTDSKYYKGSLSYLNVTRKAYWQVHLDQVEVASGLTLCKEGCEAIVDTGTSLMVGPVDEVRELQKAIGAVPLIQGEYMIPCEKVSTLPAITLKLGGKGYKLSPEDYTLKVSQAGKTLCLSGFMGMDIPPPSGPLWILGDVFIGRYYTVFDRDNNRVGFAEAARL

memapsin 2, sequence (P56817 46-501): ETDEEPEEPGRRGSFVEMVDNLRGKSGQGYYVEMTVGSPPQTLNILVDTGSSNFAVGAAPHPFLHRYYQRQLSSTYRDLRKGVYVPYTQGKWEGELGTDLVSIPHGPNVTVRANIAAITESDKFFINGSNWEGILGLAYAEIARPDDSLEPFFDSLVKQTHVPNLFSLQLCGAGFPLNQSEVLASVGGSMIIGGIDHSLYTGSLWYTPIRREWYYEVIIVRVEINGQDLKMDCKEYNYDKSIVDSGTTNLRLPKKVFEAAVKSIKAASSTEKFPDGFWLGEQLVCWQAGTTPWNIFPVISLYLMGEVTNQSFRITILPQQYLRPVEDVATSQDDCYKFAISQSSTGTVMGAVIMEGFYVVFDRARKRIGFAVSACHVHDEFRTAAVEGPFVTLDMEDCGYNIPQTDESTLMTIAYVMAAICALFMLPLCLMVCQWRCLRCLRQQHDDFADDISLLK

For the molecule `COc1cccc(C(C)NCC(O)C(Cc2ccccc2)NC(=O)c2cc(C(=O)NC(C)c3ccccc3)cc(N(C)S(C)(=O)=O)c2)c1` (centres unmarked) [N1-(3-hydroxy-4-(1-(3-methoxyphenyl)ethylamino)-1-phenylbutan-2-yl)-5-(N-methylmethylsulfonamido)-N3-(1-phenylethyl)isophthalamide], the Ki on memapsin 2, on memapsin 1 and at cathepsin D was below 300 nM each time. For the same molecule, the IC50 in assay [1] was below 1000 nM.

As to `COc1cccc(CNCC(O)C(Cc2ccccc2)NC(=O)c2cc(C(=O)NC(C)c3ccc(F)cc3)cc(N(C)S(C)(=O)=O)c2)c1` (centres unmarked) [N1-(1-(4-fluorophenyl)ethyl)-N3-(3-hydroxy-4-(3-methoxybenzylamino)-1-phenylbutan-2-yl)-5-(N-methylmethylsulfonamido)isophthalamide], the Ki on memapsin 2, on memapsin 1 and on cathepsin D was below 300 nM in each case. Moreover, the IC50 in assay [1] was below 1000 nM.

In the case of `Cc1csc(CN(C)C(=O)c2cccc(C(=O)NC(Cc3ccccc3)C(O)CNC(C)c3ccccc3)c2)n1` (centres unmarked) [N1-(3-hydroxy-1-phenyl-4-(1-phenylethylamino)butan-2-yl)-N3-methyl-N3-((4-methylthiazol-2-yl)methyl)isophthalamide], the values for the Ki at memapsin 2, on memapsin 1 and at cathepsin D were above 501 nM, below 300 nM and above 501 nM, respectively. Moreover, the IC50 in assay [1] lay within 1000 to 5000 nM.

Consider `CC(NC(=O)c1cc(C(=O)NC(Cc2ccccc2)C(O)CNCc2ccncc2)cc(N(C)S(C)(=O)=O)c1)c1ccccc1` (centres unmarked) [N1-(3-hydroxy-1-phenyl-4-(pyridin-4-ylmethylamino)butan-2-yl)-5-(N-methylmethylsulfonamido)-N3-(1-phenylethyl)isophthalamide], for which the figures for the Ki on memapsin 2, on memapsin 1 and on cathepsin D were below 300 nM, 301 to 500 nM and above 501 nM, respectively. In assay [1], the IC50 is below 1000 nM.

For the molecule `CC(NCC(O)C(Cc1ccccc1)NC(=O)c1cc(C(=O)NC(C)c2ccccc2)cc(N(C)S(C)(=O)=O)c1)c1ccc(F)cc1` (centres unmarked) [N1-(4-(1-(4-fluorophenyl)ethylamino)-3-hydroxy-1-phenylbutan-2-yl)-5-(N-methylmethylsulfonamido)-N3-(1-phenylethyl)isophthalamide], the Ki on memapsin 2, at memapsin 1 and at cathepsin D was below 300 nM throughout. In assay [1], the IC50 was below 1000 nM.
